This note sets out measurements from US10745382B2 (BRISTOL-MYERS SQUIBB COMPANY, priority 2015, dated 2020).

This test deals with T1, PD-1/PD-L1 (Homo sapiens, UniProt Q9NZQ7).
T1 construct: made in house; host or cells: HEK293T
The test is described as follows: PD-1/PD-L1 Homogenous Time-Resolved Fluorescence (HTRF) binding assay. The conditions noted are these: PD-L1-His 10 nM, PD-1-Ig 20 nM, read-out: Range or IC50. The essentials:
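Additional pairs run were PD-1-Ig with PD-L2-His (20 & 5 nM) and CD80-His with PD-L1-Ig (100 & 10 nM), all human proteins. Buffer: dPBS plus 0.1% BSA, 0.05% Tween-20; time-resolved FRET read-out via 1 nM Eu-cryptate anti-Ig and 20 nM APC anti-His, final concentrations.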
In general terms: Time-resolved FRET reads energy transfer from a long-lived donor to a nearby acceptor.

Where two headings read alike, the source gives them in different places.

As usually defined, the IC50 is the concentration that gives 50% inhibition.

T1 sequence (Q9NZQ7 with tags, fused parts or gaps): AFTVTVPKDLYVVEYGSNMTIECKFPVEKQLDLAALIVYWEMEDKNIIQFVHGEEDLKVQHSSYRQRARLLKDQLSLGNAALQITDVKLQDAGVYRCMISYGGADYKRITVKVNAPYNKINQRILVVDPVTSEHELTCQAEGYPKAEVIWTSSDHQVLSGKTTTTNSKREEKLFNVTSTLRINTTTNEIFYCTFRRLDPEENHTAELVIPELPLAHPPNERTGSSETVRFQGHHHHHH

For `CC(=O)NC1CCN(CCCOc2cccc(-c3cccc(COc4cc(OCc5cncc(C#N)c5)c(CN(CCC(F)(F)F)C(CO)CO)cc4Cl)c3C)c2Cl)CC1` [Example 2073, N-(1-(3-((2-chloro-3′-((2-chloro-5-((5-cyanopyridin-3-yl)methoxy)-4-(((1,3-dihydroxypropan-2-yl)(3,3,3-trifluoropropyl)amino)methyl)phenoxy)methyl)-2′-methyl-[1,1′-biphenyl]-3-yl)oxy)propyl)piperidin-4-yl)acetamide], the IC50 (value given as range class) fell in the range of 0.21 to 10 nM.
Same read-out and setting: the figure for `Cc1c(COc2cc(OCc3cncc(C#N)c3)c(CN(CCC(F)(F)F)C(CO)CO)cc2Cl)cccc1-c1cccc(OCCCN2CCC(O)(CO)CC2)c1Cl` [Example 2074, 5-((4-chloro-5-((2′-chloro-3′-(3-(4-hydroxy-4-(hydroxymethyl)piperidin-1-yl)propoxy)-2-methyl-[1,1′-biphenyl]-3-yl)methoxy)-2-(((1,3-dihydroxypropan-2-yl)(3,3,3-trifluoropropyl)amino)methyl)phenoxy)methyl)nicotinonitrile] is 0.21 to 10 nM.
On to `CCN(CCCOc1cccc(-c2cccc(COc3cc(OCc4cncc(C#N)c4)c(CN(CC)C[C@H](O)CO)cc3Cl)c2C)c1Cl)C[C@H](O)CO` [Example 2075, 5-((4-chloro-5-((2′-chloro-3′-(3-(((S)-2,3-dihydroxypropyl)(ethyl)amino)propoxy)-2-methyl-[1,1′-biphenyl]-3-yl)methoxy)-2-((((S)-2,3-dihydroxypropyl)(ethyl)amino)methyl)phenoxy)methyl)nicotinonitrile], for which the IC50 (numeric IC50) stood at 5 nM.
`Cc1c(COc2cc(OCc3cncc(C#N)c3)c(CN(C)C(C)(CO)CO)cc2Cl)cccc1-c1cccc(OCCCN2CC[C@@H](O)C2)c1Cl` [Example 2076, (R)-5-((4-chloro-5-((2′-chloro-3′-(3-(3-hydroxypyrrolidin-1-yl)propoxy)-2-methyl-[1,1′-biphenyl]-3-yl)methoxy)-2-(((1,3-dihydroxy-2-methylpropan-2-yl)(methyl)amino)methyl)phenoxy)methyl)nicotinonitrile]: the IC50 (value given as range class) fell in the range of 0.21 to 10 nM.
`Cc1c(COc2cc(OCc3cncc(C#N)c3)c(CNC3(CO)CC3)cc2Cl)cccc1-c1cccc(OCCCN2CC[C@@H](O)C2)c1Cl` [Example 2077, (R)-5-((4-chloro-5-((2′-chloro-3′-(3-(3-hydroxypyrrolidin-1-yl)propoxy)-2-methyl-[1,1′-biphenyl]-3-yl)methoxy)-2-(((1-(hydroxymethyl)cyclopropyl)amino)methyl)phenoxy)methyl)nicotinonitrile]: the IC50 (value given as range class) was in the range of 0.21 to 10 nM.
In the case of `C[C@](CO)(NCc1cc(Cl)c(OCc2cccc(-c3cccc(OCCCN4C[C@@H](O)[C@H](O)C4)c3Cl)c2Cl)cc1OCc1cncc(C#N)c1)C(=O)O` [Example 2078, (R)-2-((5-chloro-2-((5-cyanopyridin-3-yl)methoxy)-4-((2,2′-dichloro-3′-(3-((3R,4R)-3,4-dihydroxypyrrolidin-1-yl)propoxy)-[1,1′-biphenyl]-3-yl)methoxy)benzyl)amino)-3-hydroxy-2-methylpropanoic Acid], the IC50 (value given as range class) fell in the range of 0.21 to 10 nM.
In the case of `Cc1c(COc2cc(OCc3cncc(C#N)c3)c(CNC(C)(CO)CO)cc2Cl)cccc1-c1cccc(OCC(CO)CO)c1Cl` [Example 2079, 5-((4-chloro-5-((2′-chloro-3′-(3-hydroxy-2-(hydroxymethyl)propoxy)-2-methyl-[1,1′-biphenyl]-3-yl)methoxy)-2-(((1,3-dihydroxy-2-methylpropan-2-yl)amino)methyl)phenoxy)methyl)nicotinonitrile], the IC50 (value given as range class) lay within 0.21 to 10 nM.
Same read-out and setting: the figure for `Cc1c(COc2cc(OCc3cncc(C#N)c3)c(CNC(C)(CO)CO)cc2Cl)cccc1-c1cccc(OCCC(C)(C)O)c1Cl` [Example 2080, 5-((4-chloro-5-((2′-chloro-3′-(3-hydroxy-3-methylbutoxy)-2-methyl-[1,1′-biphenyl]-3-yl)methoxy)-2-(((1,3-dihydroxy-2-methylpropan-2-yl)amino)methyl)phenoxy)methyl)nicotinonitrile] is 0.21 to 10 nM.
As to `Cc1c(COc2cc(OCc3cncc(C#N)c3)c(CNC(C)(CO)CO)cc2Cl)cccc1-c1cccc(OCCc2ccccn2)c1Cl` [Example 2081, 5-((4-chloro-5-((2′-chloro-2-methyl-3′-(2-(pyridin-2-yl)ethoxy)-[1,1′-biphenyl]-3-yl)methoxy)-2-(((1,3-dihydroxy-2-methylpropan-2-yl)amino)methyl)phenoxy)methyl)nicotinonitrile], for the setting “value given as range class”, the IC50 fell in the range of 0.21 to 10 nM.
Consider `Cc1c(COc2cc(OCc3cncc(C#N)c3)c(CNC(C)(CO)CO)cc2Cl)cccc1-c1cccc(OCC(O)CO)c1Cl` (centres unmarked) [Example 2082, 5-((4-chloro-5-((2′-chloro-3′-(2,3-dihydroxypropoxy)-2-methyl-[1,1′-biphenyl]-3-yl)methoxy)-2-(((1,3-dihydroxy-2-methylpropan-2-yl)amino)methyl)phenoxy)methyl)nicotinonitrile], for which the IC50 (value given as range class) is 0.21 to 10 nM.
In the case of `Cc1c(COc2cc(OCc3cncc(C#N)c3)c(CN3CCCC[C@H]3C(=O)O)cc2Cl)cccc1-c1cccc(OCC(O)CO)c1Cl` (stereo partly drawn) [Example 2083, (2S)-1-(5-chloro-4-((2′-chloro-3′-(2,3-dihydroxypropoxy)-2-methyl-[1,1′-biphenyl]-3-yl)methoxy)-2-((5-cyanopyridin-3-yl)methoxy)benzyl)piperidine-2-carboxylic Acid], the IC50 (numeric IC50) came to 4 nM.
For `Cc1c(COc2cc(OCc3cncc(C#N)c3)c(CN3CCCC[C@H]3C(=O)O)cc2Cl)cccc1-c1cccc(OCC(CO)(CO)CO)c1Cl` [Example 2084, (S)-1-(5-chloro-4-((2′-chloro-3′-(3-hydroxy-2,2-bis(hydroxymethyl)propoxy)-2-methyl-[1,1′-biphenyl]-3-yl)methoxy)-2-((5-cyanopyridin-3-yl)methoxy)benzyl)piperidine-2-carboxylic Acid], the IC50 (value given as range class) was in the range of 100 to 2000 nM.
Same read-out and setting: the figure for `Cc1c(COc2cc(OCc3cncc(C#N)c3)c(CNC(C)(CO)CO)cc2Cl)cccc1-c1cccc(OCC(CO)(CO)CO)c1Cl` [Example 2085, 5-((4-chloro-5-((2′-chloro-3′-(3-hydroxy-2,2-bis(hydroxymethyl)propoxy)-2-methyl-[1,1′-biphenyl]-3-yl)methoxy)-2-(((1,3-dihydroxy-2-methylpropan-2-yl)amino)methyl)phenoxy)methyl)nicotinonitrile] is 0.21 to 10 nM; for `Cc1c(COc2cc(OCc3cncc(C#N)c3)c(CNC(C)(CO)CO)cc2Cl)cccc1-c1cccc(OCC(O)CN2CC[C@@H](O)C2)c1Cl` (stereo partly drawn) [Example 2086, 5-((4-chloro-5-((2′-chloro-3′-(2-hydroxy-3-((R)-3-hydroxypyrrolidin-1-yl)propoxy)-2-methyl-[1,1′-biphenyl]-3-yl)methoxy)-2-(((1,3-dihydroxy-2-methylpropan-2-yl)amino)methyl)phenoxy)methyl)nicotinonitrile] it is 0.21 to 10 nM; for `Cc1c(COc2cc(OCc3cncc(C#N)c3)c(CNC(C)(CO)CO)cc2Cl)cccc1-c1cccc(OCCCNC(=O)C(O)CO)c1Cl` (centres unmarked) [Example 2088, N-(3-((2-chloro-3′-((2-chloro-5-((5-cyanopyridin-3-yl)methoxy)-4-(((1,3-dihydroxy-2-methylpropan-2-yl)amino)methyl)phenoxy)methyl)-2′-methyl-[1,1′-biphenyl]-3-yl)oxy)propyl)-2,3-dihydroxypropanamide] it is 0.21 to 10 nM.
For the molecule `Cc1c(COc2cc(OCc3cncc(C#N)c3)c(CNC(C)(CO)CO)cc2Cl)cccc1-c1cccc(OCCCNC(=O)Cc2ccccn2)c1Cl` [Example 2089, N-(3-((2-chloro-3′-((2-chloro-5-((5-cyanopyridin-3-yl)methoxy)-4-(((1,3-dihydroxy-2-methylpropan-2-yl)amino)methyl)phenoxy)methyl)-2′-methyl-[1,1′-biphenyl]-3-yl)oxy)propyl)-2-(pyridin-2-yl)acetamide], the IC50 (value given as range class) fell in the range of 0.21 to 10 nM.
In the case of `Cc1c(COc2cc(OCc3cncc(C#N)c3)c(CNC(C)(CO)CO)cc2Cl)cccc1-c1cccc(CNCCN2CCOCC2)c1Cl` [Example 2092, 5-((4-chloro-5-((2′-chloro-2-methyl-3′-(((2-morpholinoethyl)amino)methyl)-[1,1′-biphenyl]-3-yl)methoxy)-2-(((1,3-dihydroxy-2-methylpropan-2-yl)amino)methyl)phenoxy)methyl)nicotinonitrile], the IC50 (value given as range class) lay in the range of 0.21 to 10 nM.
Still for that read-out and setting: the figure for `Cc1c(OCCCN2CC[C@@H](O)C2)cccc1-c1c(Cl)ccc(COc2cc(OCc3cncc(C#N)c3)c(CNC(C)(CO)CO)cc2Cl)c1Cl` [Example 2093, 5-((4-chloro-5-((2,6-dichloro-3′-(3-((R)-3-hydroxypyrrolidin-1-yl)propoxy)-2′-methyl-[1,1′-biphenyl]-3-yl)methoxy)-2-(((1,3-dihydroxy-2-methylpropan-2-yl)amino)methyl)phenoxy)methyl)nicotinonitrile] is 0.21 to 10 nM.
For `CC(=O)N[C@H]1CCN(CCCOc2cccc(-c3c(Cl)ccc(COc4cc(OCc5cncc(C#N)c5)c(CNC(C)(CO)CO)cc4Cl)c3Cl)c2C)C1` [Example 2094, N-((3S)-1-(3-((2′,6′-dichloro-3′-((2-chloro-5-((5-cyanopyridin-3-yl)methoxy)-4-(((1,3-dihydroxy-2-methylpropan-2-yl)amino)methyl)phenoxy)methyl)-2-methyl-[1,1′-biphenyl]-3-yl)oxy)propyl)pyrrolidin-3-yl)acetamide], the IC50 (numeric IC50) came to 6 nM.
In the case of `Cc1c(COc2cc(OCc3cncc(C#N)c3)c(CNC(C)(CO)CO)cc2Cl)cccc1-c1cccc(OCCCNC[C@H](O)CO)c1Cl` [Example 2097, (S)-5-((4-chloro-5-((2′-chloro-3′-(3-((2,3-dihydroxypropyl)amino)propoxy)-2-methyl-[1,1′-biphenyl]-3-yl)methoxy)-2-(((1,3-dihydroxy-2-methylpropan-2-yl)amino)methyl)phenoxy)methyl)nicotinonitrile], the IC50 (value given as range class) is 0.21 to 10 nM.
